Data: publication PMC10648541, “Design, Synthesis, and Antiproliferative Activity of Selective Histone Deacetylases 6 Inhibitors Containing a Tetrahydropyridopyrimidine Scaffold” (Molecules, 2023)
Entries after “also recorded” stand apart in the source; their conditions may differ.

Key:
HDAC1 = target: T1, HDAC1 (Homo sapiens, UniProt Q13547); assay: In vitro HDAC enzyme assay (Reaction Biology Corporation), HDAC1; type: biochemical; settings: Table 1; duplicate, SD < 15%
T1 construct: purchased Reaction Biology Corporation
T1 sequence (Q13547 whole entry): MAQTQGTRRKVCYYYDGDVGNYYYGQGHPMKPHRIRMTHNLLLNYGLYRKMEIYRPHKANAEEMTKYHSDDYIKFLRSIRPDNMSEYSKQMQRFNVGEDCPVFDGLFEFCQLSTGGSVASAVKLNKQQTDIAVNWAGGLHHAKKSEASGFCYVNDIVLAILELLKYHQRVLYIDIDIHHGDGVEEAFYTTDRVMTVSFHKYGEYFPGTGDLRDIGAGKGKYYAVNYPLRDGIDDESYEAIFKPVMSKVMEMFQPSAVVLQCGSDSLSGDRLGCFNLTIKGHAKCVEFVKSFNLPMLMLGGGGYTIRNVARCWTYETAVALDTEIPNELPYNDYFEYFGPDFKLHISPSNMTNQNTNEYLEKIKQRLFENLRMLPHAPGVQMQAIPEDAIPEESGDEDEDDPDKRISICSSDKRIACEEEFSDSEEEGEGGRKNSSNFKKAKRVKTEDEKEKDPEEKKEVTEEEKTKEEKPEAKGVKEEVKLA

HDAC2 = target: T2, HDAC2 (Homo sapiens, UniProt Q92769); assay: In vitro HDAC enzyme assay (Reaction Biology Corporation), HDAC2; type: biochemical; settings: Table 2 isozyme screen; duplicate, SD < 15%
T2 construct: purchased Reaction Biology Corporation
T2 sequence (Q92769 whole entry): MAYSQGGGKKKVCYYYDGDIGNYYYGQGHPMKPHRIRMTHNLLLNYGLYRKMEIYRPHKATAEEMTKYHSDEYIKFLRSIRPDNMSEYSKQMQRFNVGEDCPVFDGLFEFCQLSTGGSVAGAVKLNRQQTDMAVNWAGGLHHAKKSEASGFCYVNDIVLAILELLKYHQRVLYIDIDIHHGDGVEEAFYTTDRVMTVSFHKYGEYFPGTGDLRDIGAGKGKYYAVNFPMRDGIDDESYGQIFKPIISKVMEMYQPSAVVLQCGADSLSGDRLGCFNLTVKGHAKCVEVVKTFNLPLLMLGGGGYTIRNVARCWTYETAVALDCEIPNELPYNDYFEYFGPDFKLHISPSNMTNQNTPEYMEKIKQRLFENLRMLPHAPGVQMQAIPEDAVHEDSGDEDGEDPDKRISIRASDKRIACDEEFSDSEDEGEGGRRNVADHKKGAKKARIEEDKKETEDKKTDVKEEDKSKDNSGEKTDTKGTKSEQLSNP

HDAC3 = target: T3, HDAC3 (Homo sapiens, UniProt O15379); assay: In vitro HDAC enzyme assay (Reaction Biology Corporation), HDAC3; type: biochemical; settings: Table 2 isozyme screen; duplicate, SD < 15%
T3 construct: purchased Reaction Biology Corporation
T3 sequence (O15379 whole entry): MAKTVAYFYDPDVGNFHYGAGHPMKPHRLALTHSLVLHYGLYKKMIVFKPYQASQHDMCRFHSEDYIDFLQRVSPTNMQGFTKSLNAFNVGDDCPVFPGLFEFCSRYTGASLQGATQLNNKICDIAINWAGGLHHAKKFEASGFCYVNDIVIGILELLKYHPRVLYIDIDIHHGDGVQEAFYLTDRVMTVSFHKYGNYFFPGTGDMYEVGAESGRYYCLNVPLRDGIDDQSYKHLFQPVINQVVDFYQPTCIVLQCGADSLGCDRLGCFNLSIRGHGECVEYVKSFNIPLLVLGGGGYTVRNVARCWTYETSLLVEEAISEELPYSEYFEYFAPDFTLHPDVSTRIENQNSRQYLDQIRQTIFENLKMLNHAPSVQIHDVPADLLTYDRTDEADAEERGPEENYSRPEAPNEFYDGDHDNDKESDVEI
T3 sequence (Q9Y618 395-489 partner limits assumed): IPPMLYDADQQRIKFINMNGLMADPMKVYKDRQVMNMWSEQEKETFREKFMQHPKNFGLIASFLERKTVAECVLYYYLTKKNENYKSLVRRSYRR

HL60 = assay: Antiproliferative assay (Alamar blue, 72 h), HL60; type: cell-based; settings: Homo sapiens, HL-60, HL60 cells, three independent experiments, SD < 10%, read-out: Antiproliferative effect IC50, HL60
HCT116 = assay: Antiproliferative assay (Alamar blue, 72 h), HCT116; type: cell-based; settings: Homo sapiens, HCT-116, HCT116 cells, three independent experiments, SD < 10%, read-out: Antiproliferative effect IC50, HCT116
RPMI-8226 = assay: Antiproliferative assay (Alamar blue, 72 h), RPMI-8226; type: cell-based, human; settings: Homo sapiens, RPMI-8226 cells, three independent experiments, SD < 10%, read-out: Antiproliferative effect IC50, RPMI-8226
Procedure: The cells were cultured in IMDM (Gibco) medium with 20% FBS (Lonsera), 100 U/mL penicillin, and 100 µg/mL streptomycin (Solarbio). All cells were maintained at 37 °C in a humidified atmosphere of 5% CO2 in air. Briefly, 100 µL cell suspension or completed medium was plated into a 96-well plate. Compounds were added and incubated for 72 h. Then, 22 µL Alamar blue solution (1 mM) was pipetted into each well of a 96-well plate, and the plate was incubated for an additional 5~6 h. The absorbance (OD) was read at 530/590 nm. Data were normalized to vehicle groups (DMSO) and represented as the means of three independent measurements with standard errors of <20%. The IC50 values were calculated using Prism 5.0.

acetylated α-tubulin = assay: Western blot, acetylated α-tubulin in RPMI-8226 cells; type: cell-based, human; settings: 24 h, 1, 5, and 10 μM
Procedure: RPMI-8226 cells (1 × 10^6) were seeded overnight and incubated with compound 8f for 24 h on indicated concentrations. Cell extract was prepared by lysing cultured cells with a mammalian protein extraction reagent supplemented with EDTA-free protease inhibitor for 15 min. SDS-PAGE and immunoblot analysis were conducted as described. Antibodies for Ac-H3 (abcom, AB32129) and Ac-ɑ-tubulin (Cell Signaling, 2144) were used.

[1] = test system: 59 different tumor cell lines; assay: NCI-60 antiproliferative evaluation, whole panel; type: cell-based; settings: 10 μM, of 59 tumor cell lines
Text: (§1) Then, 8f was submitted to NCI for antiproliferative evaluation against 59 different tumor cell lines. The cancer types of the NCI-60 program include leukemia, non-small cell lung cancer (NSCLC), colon cancer, CNS cancer, melanoma, ovary cancer, renal cancer, prostate cancer, and breast cancer.

A549/ATCC = assay: NCI-60 antiproliferative screening, A549/ATCC; type: cell-based; settings: Homo sapiens, A549/ATCC (Non-Small Cell Lung Cancer), read-out: Inhibition% values at 10 μM concentration
Text: as §1

NCI-H322M = assay: NCI-60 antiproliferative screening, NCI-H322M; type: cell-based; settings: Homo sapiens, NCI-H322M (Non-Small Cell Lung Cancer), read-out: Inhibition% values at 10 μM concentration
Text: as §1

NCI-H522 = assay: NCI-60 antiproliferative screening, NCI-H522; type: cell-based; settings: Homo sapiens, NCI-H522 (Non-Small Cell Lung Cancer), read-out: Inhibition% values at 10 μM concentration
Text: as §1

HCC-2998 = assay: NCI-60 antiproliferative screening, HCC-2998; type: cell-based; settings: Homo sapiens, HCC-2998 (Colon Cancer), read-out: Inhibition% values at 10 μM concentration
Text: as §1

HCT-116 = assay: NCI-60 antiproliferative screening, HCT-116; type: cell-based; settings: Homo sapiens, HCT-116 (Colon Cancer), read-out: Inhibition% values at 10 μM concentration
Text: as §1

HCT-15 = assay: NCI-60 antiproliferative screening, HCT-15; type: cell-based; settings: Homo sapiens, HCT-15 (Colon Cancer), read-out: Inhibition% values at 10 μM concentration
Text: as §1

SW-620 = assay: NCI-60 antiproliferative screening, SW-620; type: cell-based; settings: Homo sapiens, SW-620 (Colon Cancer), read-out: Inhibition% values at 10 μM concentration
Text: as §1

SF-268 = assay: NCI-60 antiproliferative screening, SF-268; type: cell-based; settings: Homo sapiens, SF-268 (CNS Cancer), read-out: Inhibition% values at 10 μM concentration
Text: as §1

SF-295 = assay: NCI-60 antiproliferative screening, SF-295; type: cell-based; settings: Homo sapiens, SF-295 (CNS Cancer), read-out: Inhibition% values at 10 μM concentration
Text: as §1

SF-539 = assay: NCI-60 antiproliferative screening, SF-539; type: cell-based; settings: Homo sapiens, SF-539 (CNS Cancer), read-out: Inhibition% values at 10 μM concentration
Text: as §1

U251 = assay: NCI-60 antiproliferative screening, U251; type: cell-based; settings: Homo sapiens, U-251, U251 (CNS Cancer), read-out: Inhibition% values at 10 μM concentration
Text: as §1

MALME-3M = assay: NCI-60 antiproliferative screening, MALME-3M; type: cell-based; settings: Homo sapiens, MALME-3M (Melanoma), read-out: Inhibition% values at 10 μM concentration
Text: as §1

MDA-MB-435 = assay: NCI-60 antiproliferative screening, MDA-MB-435; type: cell-based; settings: Homo sapiens, MDA-MB-435 (Melanoma), read-out: Inhibition% values at 10 μM concentration
Text: as §1

OVCAR-3 = assay: NCI-60 antiproliferative screening, OVCAR-3; type: cell-based; settings: Homo sapiens, OVCAR-3 (Ovarian Cancer), read-out: Inhibition% values at 10 μM concentration
Text: as §1

SK-OV-3 = assay: NCI-60 antiproliferative screening, SK-OV-3; type: cell-based; settings: Homo sapiens, SK-OV-3 (Ovarian Cancer), read-out: Inhibition% values at 10 μM concentration
Text: as §1

A498 = assay: NCI-60 antiproliferative screening, A498; type: cell-based; settings: Homo sapiens, A498 (Renal Cancer), read-out: Inhibition% values at 10 μM concentration
Text: as §1

HS 578T = assay: NCI-60 antiproliferative screening, HS 578T; type: cell-based; settings: Homo sapiens, HS 578T (Breast Cancer), read-out: Inhibition% values at 10 μM concentration
Text: as §1

MDA-MB-468 = assay: NCI-60 antiproliferative screening, MDA-MB-468; type: cell-based; settings: Homo sapiens, MDA-MB-468 (Breast Cancer), read-out: Inhibition% values at 10 μM concentration
Text: as §1

Structure (SMILES): COc1cccc(-c2nc3c(c(-c4cccc(OC)c4)n2)CCN(C(=O)CCCCCCC(=O)NO)C3)c1 [Compound 8f, 8-(2,4-Bis(3-methoxyphenyl)-5,8-dihydropyrido [3,4-d]pyrimidin-7(6H)-yl)-N-hydroxy-8-oxooctanamide]
- IC50 (HDAC1): 308 nM
- IC50 (HDAC2): 390 nM
- IC50 (HDAC3): 411 nM
- IC50 (HL60): 3200 nM
- IC50 (HCT116): 3250 nM
- IC50 (RPMI-8226): 2800 nM
- levels of acetylated α-tubulin (acetylated α-tubulin): increase the levels of acetylated α-tubulin in a dose-dependent manner; also recorded: elevated the levels of acetylated α-tubulin in a dose-dependent manner
- number of cell lines with percent inhibitions > 80% [1]: 56 cell lines
- inhibition at 10 µM (A549/ATCC): 87.7%
- inhibition at 10 µM (NCI-H322M): 89%
- inhibition at 10 µM (NCI-H522): 69.1%
- inhibition at 10 µM (HCC-2998): 100%
- inhibition at 10 µM (HCT-116): 96%
- inhibition at 10 µM (HCT-15): 100%
- inhibition at 10 µM (SW-620): 100%
- inhibition at 10 µM (SF-268): 92.2%
- inhibition at 10 µM (SF-295): 100%
- inhibition at 10 µM (SF-539): 99%
- inhibition at 10 µM (U251): 100%
- inhibition at 10 µM (MALME-3M): 100%
- inhibition at 10 µM (MDA-MB-435): 95.8%
- inhibition at 10 µM (OVCAR-3): 100%
- inhibition at 10 µM (SK-OV-3): 100%
- inhibition at 10 µM (A498): 100%
- inhibition at 10 µM (HS 578T): 97.8%
- inhibition at 10 µM (MDA-MB-468): 100%
- melting point: 117 to 118 °C
